Measurements: patent US20230131899A1, “INHIBITORS OF MICROBIALLY INDUCED AMYLOID” (Axial Therapeutics, Inc., priority 2020, published 2023)
Like-named read-outs stand apart in the source and are kept apart here.

What was measured:
[1] = biological target: T1, E. coli CsgA (Escherichia coli, UniProt P28307); experiment: In vitro ThioflavinT assay of CsgA aggregation (CsgA ThT Assay); type: biochemical; settings: 1005 minutes; for remaining activity at 25 µM: compound 25 μM; for remaining activity at 100 µM: compound 100 μM
T1 construct: made in house; host or cells: E. coli NEB 3016 slyD::kan, pET11d
In short: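 Purified C-terminal His-tagged CsgA, monomerised by desalting and 30-kDa filtration, at 2-20 μM with 20-40 μM ThT in 50 mM potassium phosphate pH 7.3, 1% DMSO, compounds 3.125-200 uM; room temperature, fluorescence (ex 438/em 495 nm) read every 15 min. Background-subtracted signal expressed as percent inhibition versus vehicle at 6-6.5 or 8-9 h, or as percent control AUC.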

[2] = tested on: CsgA gene expression (csgBAC promoter-GFP reporter) in E. coli UTI89; experiment: In vitro live cell fluorescent reporter assay of CsgA transcription (Reporter Assay); type: cell-based; settings: Escherichia coli
In short: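 Chromosomal single-copy csgBAC promoter–GFP reporter in E. coli UTI89, started at OD600 0.003 in YESCA broth with compound (0.14–100 μM, 1% DMSO), 20 h at 27 °C. GFP (ex 485/em 525 nm) background-subtracted and normalized to vehicle; IC50 and X[50] from curve fits. OD600 tracked growth effects.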

[3] = read-out: CsgA ThT Assay (10 μM CsgA) % Control AUC at 1005 minutes, 25 μM (activity range), CsgA 10 μM, black plates, class symbol
[4] = read-out: CsgA ThT Assay (10 μM CsgA) % Control AUC at 1005 minutes, 25 μM, mean AUC as % of DMSO control, CsgA 10 μM, black plates
[5] = read-out: CsgA ThT Assay (10 μM CsgA) % Control AUC at 1005 minutes, 100 μM (activity range), CsgA 10 μM, black plates, class symbol
[6] = read-out: CsgA ThT Assay (10 μM CsgA) % Control AUC at 1005 minutes, 100 μM, mean AUC as % of DMSO control, CsgA 10 μM, black plates
[7] = read-out: Reporter Assay Abs IC50 (activity range), median Abs IC50 in the CsgA reporter assay, class symbol
[8] = read-out: Reporter Assay Abs IC50 (μM), median Abs IC50 in the CsgA reporter assay, N/A = maximum expression reduction is <50% of control

T1 sequence (P28307 23-151): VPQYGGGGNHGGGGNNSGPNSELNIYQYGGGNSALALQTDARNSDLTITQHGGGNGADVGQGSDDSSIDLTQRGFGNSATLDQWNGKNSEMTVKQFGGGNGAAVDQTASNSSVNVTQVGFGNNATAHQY

SMILES	remaining activity at 25 µM [1, 3] [%]	remaining activity at 25 µM [1, 4] [%]	remaining activity at 100 µM [1, 5] [%]	remaining activity at 100 µM [1, 6] [%]	IC50 [2, 7] [µM]	IC50 [2, 8] [µM]
CCCCN1CC(C(=O)O)n2c(c(-c3cccc(C(F)(F)F)c3)c(Cc3cccc4ccccc34)c(N)c2=O)S1(=O)=O (stereo not drawn) [Compound 093, 7-amino-2-butyl-8-(naphthalen-1-ylmethyl)-6-oxo-9-(3-(trifluoromethyl)phenyl)-3,4-dihydro-2H,6H-pyrido[1,2-e][1,2,5]thiadiazine-4-carboxylic acid 1,1-dioxide]	31 to 60	49	31 to 60	37	1.3 to 4.5	3.6
CCCCCN1CC(C(=O)O)n2c(c(-c3cccc(C(F)(F)F)c3)c(Cc3cccc4ccccc34)c(N)c2=O)S1(=O)=O (stereo not drawn) [Compound 094, 7-amino-8-(naphthalen-1-ylmethyl)-6-oxo-2-pentyl-9-(3-(trifluoromethyl)phenyl)-3,4-dihydro-2H,6H-pyrido[1,2-e][1,2,5]thiadiazine-4-carboxylic acid 1,1-dioxide]	31 to 60	51	11 to 31	30	1.3 to 4.5	1.9
Nc1c(Cc2cccc3ccccc23)c(-c2cccc(C(F)(F)F)c2)c2n(c1=O)C(C(=O)O)CN(C[C@H](O)CO)S2(=O)=O (stereo partly drawn) [Compound 095, 7-amino-2-((S)-2,3-dihydroxypropyl)-8-(naphthalen-1-ylmethyl)-6-oxo-9-(3-(trifluoromethyl)phenyl)-3,4-dihydro-2H,6H-pyrido[1,2-e][1,2,5]thiadiazine-4-carboxylic acid 1,1-dioxide]	> 60	91	> 60	70	> 10	25.9
Nc1c(Cc2cccc3ccccc23)c(-c2cccc(C(F)(F)F)c2)c2n(c1=O)C(C(=O)O)CN(C[C@@H](O)CO)S2(=O)=O (stereo partly drawn) [Compound 096, 7-amino-2-((R)-2,3-dihydroxypropyl)-8-(naphthalen-1-ylmethyl)-6-oxo-9-(3-(trifluoromethyl)phenyl)-3,4-dihydro-2H,6H-pyrido[1,2-e][1,2,5]thiadiazine-4-carboxylic acid 1,1-dioxide]	> 60	79	> 60	71	> 10	22.9
Nc1c(Cc2cccc3ccccc23)c(-c2cccc(C(F)(F)F)c2)c2n(c1=O)C(C(=O)O)CN(CCCO)S2(=O)=O (stereo not drawn) [Compound 097, 7-amino-2-(3-hydroxypropyl)-8-(naphthalen-1-ylmethyl)-6-oxo-9-(3-(trifluoromethyl)phenyl)-3,4-dihydro-2H,6H-pyrido[1,2-e][1,2,5]thiadiazine-4-carboxylic acid 1,1-dioxide]	> 60	63	31 to 60	41	> 10	18.4
Nc1c(Cc2cccc3ccccc23)c(-c2cccc(C(F)(F)F)c2)c2n(c1=O)C(C(=O)O)CN(CCO)S2(=O)=O (stereo not drawn) [Compound 098, 7-amino-2-(2-hydroxyethyl)-8-(naphthalen-1-ylmethyl)-6-oxo-9-(3-(trifluoromethyl)phenyl)-3,4-dihydro-2H,6H-pyrido[1,2-e][1,2,5]thiadiazine-4-carboxylic acid 1,1-dioxide]	31 to 60	60	31 to 60	33	> 10	20.9
Nc1c(Cc2cccc3ccccc23)c(-c2cccc(C(F)(F)F)c2)c2n(c1=O)C(C(=O)O)CN(CCCCO)S2(=O)=O (stereo not drawn) [Compound 099, 7-amino-2-(4-hydroxybutyl)-8-(naphthalen-1-ylmethyl)-6-oxo-9-(3-(trifluoromethyl)phenyl)-3,4-dihydro-2H,6H-pyrido[1,2-e][1,2,5]thiadiazine-4-carboxylic acid 1,1-dioxide]	31 to 60	56	31 to 60	44	> 10	17.6
